Article PMC9817970 (Cancers, 2022)

What was measured:
[1] = system: phosphorylated c-KIT (Tyr703) and downstream signaling in GIST-T1 cells; assay: Western blot of c-KIT signaling; assay type: cell-based, human
Procedure: (§1) Cells were harvested and lysed using RIPA buffer containing 50 mM HEPES (pH 7.4), 1% Triton X-100, 2 mM EDTA, 150 mM NaCl, 2.5 mM NaF, 5 mM Na3VO4, and protease inhibitor cocktail tablet (Roche, # 11–878-580–001). Proteins were separated and transferred to an NC membrane. The membranes were blocked using 5% skim milk in TBS-T buffer. The p-c-KIT (Tyr703, # 3073), p-AKT (Ser473, # 9271), p-ERK (Thr202/Tyr204, # 8544), ERK (# 4695), p-PLCγ (Tyr783, # 14008), p-STAT3 (Tyr705, # 4074), and PARP (# 9542) antibodies were obtained from Cell Signaling Technologies. The β-actin (# sc-47778) and STAT3 (# sc-482) antibodies were obtained from Santa Cruz Biotechnology. AKT (A18120) antibody was purchased from ABclonal. Each primary antibody was incubated overnight at 4 °C. The secondary antibody (GenDEPOT) was incubated for 1 h at room temperature. Proteins were detected using ECL substrate.

[2] = system: c-KIT auto-phosphorylation in HMC1.2 cells; assay: Western blot of c-KIT signaling; assay type: cell-based, human; conditions: 10 μM
Procedure: as §1

c-KIT = c-KIT (Homo sapiens, UniProt P10721); assay: Radiometric biochemical kinase assay on c-KIT; set-up: purchased Reaction Biology Corp. (contract assay service); conditions: for IC50: read-out: IC50 against c-KIT; for fold decreased c-KIT inhibitory activity relative to 6r: versus 6r
Procedure: (§2) Biochemical kinase assays on c-KIT protein kinase were performed at Reaction Biology Corp. (San Diego, CA, USA). […] The kinase assay followed the manufacturer’s instruction. IC50 values were calculated by GraphPad prism 8.0 software (GraphPad Software, San Diego, CA, USA).
Enzymatic inhibitory activities of all synthesized thiazolo[5,4-b]pyridine derivatives against c-KIT were measured using radiometric biochemical kinase assays (Table 1). We first explored the R1 group of the thiazolo[5,4-b]pyridine scaffold.

parental Ba/F3 cells = assay: Anti-proliferative activity on Ba/F3 cells; assay type: cell-based; conditions: Mus musculus, BaF3
Procedure: (§3) GIST-T1 (Cosmobio, Tokyo, Japan, # PMC-GIST01C-COS) cells were cultured in DMEM (Welgene, # LM001-05) and HMC1.2 (Merck, Darmstadt, Germany, # SCC062) cells were cultured in IMDM (Welgene, # LM004-01). Parental Ba/F3 (DSMZ, Braunschweig, Germany, # ACC300) cells were cultured in RPMI (Welgene, # LM011-51) with 10 ng IL-3/mL (Enzo, # ALX-201-821). The culture media was supplemented with 10% fetal bovine serum and 1% penicillin/streptomycin solution. The cells were maintained in a humidified atmosphere containing 5% CO2 at 37 °C.
(§4) Cells (GIST-T1: 5.0 × 10^3; HMC1.2: 1 × 10^4) were seeded in 96-well plates. Each compound was treated in each well at 10 dose points of 3-fold serial dilution. After treatment with each compound for 72 h, CellTiter-Glo solution (Promega, # G7572) was added to each well. Anti-proliferation activity was measured the luminescence using a 96-well plate reader (EnVision 2013).

HMC1.2 cells [3] = assay: Cell viability assay (CellTiter-Glo); assay type: cell-based, human; conditions: 72 h; for GI50: Homo sapiens
Procedure: as §3, §4

c-KIT D816V Ba/F3 cells [4] = assay: Cell cycle arrest analysis (PI flow cytometry); assay type: cell-based; conditions: c-KIT D816V Ba/F3, 0.5 μM, 24 h
c-KIT D816V Ba/F3 cells [5] = assay: Apoptosis analysis (annexinV/PI flow cytometry); assay type: cell-based; conditions: c-KIT D816V Ba/F3, 1 μM
Procedure: (§5) After compound treatment in GIST-T1 and HMC1.2 cells for 24 h, cells were fixed with 70% cold ethanol. Then, cells were incubated with 50 μg propidium iodide/mL solution (PI, Sigma) containing 1 mg RNase A/mL for 30 min in the dark. Cell cycle arrest was analyzed (BD Accuri), and data were processed using BD Accuri^TM C6 software. For apoptosis analysis, compound treatment for 24–48 h, cells were harvested and stained with annexinV and PI solution. 1 × 10^5 cells were analyzed using flow cytometric analysis.

HMC1.2 cells [6] = assay: Apoptosis analysis (annexinV/PI flow cytometry); assay type: cell-based, human; conditions: HMC1.2, 1 μM, 48 h
Procedure: as §5

GIST-T1 cells [7] = assay: Apoptosis analysis (annexinV/PI flow cytometry); assay type: cell-based, human; conditions: GIST-T1, 0.05 μM
Procedure: as §5

c-KIT V560G/D816V = target: T1, c-KIT V560G/D816V (Homo sapiens, UniProt P10721, D816V/V560G); assay: ADP-Glo kinase assay on c-KIT V560G/D816V; assay type: biochemical; conditions: for IC50: ADP-Glo kinase assay, 10 μM ATP; for fold higher enzymatic inhibitory activity against c-KIT V560G/D816V compared with imatinib: versus imatinib
T1 construct: purchased Promega VA7063
Procedure: as §2

GIST-T1 cells [8] = assay: Cell viability assay (CellTiter-Glo); assay type: cell-based; conditions: Homo sapiens, GISTT1; 72 h; concentration causing half-maximal growth inhibition
Procedure: as §3, §4

GIST-T1 cells [9] = assay: Migration (wound healing) assay; assay type: cell-based, human; conditions: GIST-T1, 0.005 μM and 0.05 μM, 36 h
Procedure: GIST-T1 cells were seeded in 6-well plates at 2 × 10^6 cells. Next day, cells were washed with PBS and wounded in the center of each well. Then, GIST-T1 cells were washed with PBS and added to fresh DMEM.

GIST-T1 cells [10] = assay: Invasion assay (Transwell); assay type: cell-based, human; conditions: GIST-T1, 0.05 μM, 48 h
Procedure: The cell invasion assay was performed using Transwell membrane filter inserts (Corning Costar Corp., Corning, NY, USA). GIST-T1 cells were then suspended in serum-free DMEM at 2 × 10^6 cells and seeded in the upper chambers. In the lower chambers, the DMEM medium containing 10% FBS was added. After 48 h, the cells migrating down the membrane were stained with crystal violet.

HMC1.2 cells [11] = assay: Cell cycle arrest analysis (PI flow cytometry); assay type: cell-based, human; conditions: HMC1.2, 0.5 μM, 24 h
Procedure: as §5

GIST-T1 cells [12] = assay: Cell cycle arrest analysis (PI flow cytometry); assay type: cell-based, human; conditions: GIST-T1, 0.01 μM
Procedure: as §5

[13] = system: c-KIT auto-phosphorylation in c-KIT D816V Ba/F3 cells; assay: Western blot of c-KIT signaling; assay type: cell-based; conditions: 10 μM
Procedure: as §1

c-KIT D816V Ba/F3 cells [14] = assay: Anti-proliferative activity on Ba/F3 cells; assay type: cell-based; conditions: Mus musculus, BaF3
GIST = system: GIST; set-up: method as in PMID 32601076; conditions: fourth-line treatment; cited from earlier work
GIST-T1 cells [15] = assay: Soft agar assay (anchorage-independent growth); assay type: cell-based, human; conditions: GIST-T1, two different concentrations, 3 weeks
Procedure: Anchorage-independent growth was assessed by determining colony formation on soft agar. GIST-T1 cells in DMEM media containing 0.7% agar were plated at 5,000 cells per well. Cells were treated with each compound for 3 weeks, and the media were changed every 3 days. Colonies were stained using iodonitrotetrazolium chloride (Sigma Aldrich). The average number colonies were counted using ImageJ software (version 1.53e, National Institutes of Health, Bethesda, MD, USA)

IC50 (c-KIT) | GI50 (c-KIT D816V Ba/F3 cells [14]) | Structure (SMILES) | GI50 (parental Ba/F3 cells) | GI50 (HMC1.2 cells [3]) | GI50 (GIST-T1 cells [8]) | other results
370 nM | 1060 ± 150 nM | Cc1ccc(NC(=O)c2ccc(CN3CCNCC3)c(C(F)(F)F)c2)cc1-c1cnc2sc(N)nc2c1 [6s] | 10500 ± 3590 nM | 1330 ± 430 nM | 20 nM | levels of phosphorylated c-KIT (Tyr703) and downstream mediators p-AKT, p-ERK, p-PLCγ, p-STAT3 [1]: remarkably inhibited; c-KIT auto-phosphorylation [2]: completely inhibited; G0/G1 arrest compared with imatinib (c-KIT D816V Ba/F3 cells [4]): more strongly; production of apoptotic cells (c-KIT D816V Ba/F3 cells [5]): remarkably induced; production of apoptotic cells (HMC1.2 cells [6]): remarkably induced; production of apoptotic cells (GIST-T1 cells [7]): remarkably induced; IC50 (c-KIT V560G/D816V): 7670 ± 2640 nM; fold higher enzymatic inhibitory activity against c-KIT V560G/D816V compared with imatinib (c-KIT V560G/D816V): 4.9- to 8.0 fold; cell migration decreased compared to control (GIST-T1 cells [9]): 50–70%; invasion capability (GIST-T1 cells [10]): significantly suppressing; G0/G1 arrest compared with imatinib (HMC1.2 cells [11]): more strongly; G0/G1 arrest induced compared to control (GIST-T1 cells [12]): 25–35%; c-KIT auto-phosphorylation [13]: completely inhibited
1510 nM | – | Cc1ccc(NC(=O)c2ccc(CN3CCN(C)CC3)c(C(F)(F)F)c2)cc1-c1cnc2sc(NC(=O)C3CCCCC3)nc2c1 [7a] | – | 4580 ± 320 nM | 80 ± 10 nM | fold decreased c-KIT inhibitory activity relative to 6r (c-KIT): 5.3- to 10.8 fold
740 nM | – | Cc1ccc(NC(=O)c2ccc(CN3CCN(C)CC3)c(C(F)(F)F)c2)cc1-c1cnc2sc(NC(=O)c3ccccc3)nc2c1 [7b] | – | 5220 ± 590 nM | 100 ± 10 nM | fold decreased c-KIT inhibitory activity relative to 6r (c-KIT): 5.3- to 10.8 fold
100 nM | 530 ± 60 nM | CC(=O)Nc1nc2cc(-c3cc(NC(=O)c4ccc(CN5CCN(C)CC5)c(C(F)(F)F)c4)ccc3C)cnc2s1 [7c] | 10500 ± 3440 nM | 1520 ± 430 nM | 10 nM | levels of phosphorylated c-KIT (Tyr703) and downstream mediators p-AKT, p-ERK, p-PLCγ, p-STAT3 [1]: remarkably inhibited; c-KIT auto-phosphorylation [2]: completely inhibited; G0/G1 arrest compared with imatinib (c-KIT D816V Ba/F3 cells [4]): more strongly; production of apoptotic cells (c-KIT D816V Ba/F3 cells [5]): remarkably induced; production of apoptotic cells (HMC1.2 cells [6]): remarkably induced; production of apoptotic cells (GIST-T1 cells [7]): remarkably induced; IC50 (c-KIT V560G/D816V): 5070 ± 710 nM; fold higher enzymatic inhibitory activity against c-KIT V560G/D816V compared with imatinib (c-KIT V560G/D816V): 4.9- to 8.0 fold; cell migration decreased compared to control (GIST-T1 cells [9]): 50–70%; invasion capability (GIST-T1 cells [10]): significantly suppressing; G0/G1 arrest compared with imatinib (HMC1.2 cells [11]): more strongly; G0/G1 arrest induced compared to control (GIST-T1 cells [12]): 25–35%; c-KIT auto-phosphorylation [13]: completely inhibited
– | – | Cc1ccc(NC(=O)c2ccc(N3CCOCC3)c(C(F)(F)F)c2)cc1-c1cnc2sc(NC(=O)C3CCCCC3)nc2c1 [7d] | – | – | 8130 ± 1810 nM | IC50 against c-KIT (c-KIT; radiometric biochemical kinase assay, 10 μM ATP, inactive = less than 50% inhibition at a concentration of 10 μM): inactive^b; GI50 HMC1.2 (HMC1.2 cells [3]; inactive = less than 50% inhibition at a concentration of 50 μM): inactive ^b
880 nM | – | CC(=O)Nc1nc2cc(-c3cc(NC(=O)c4ccc(N5CCOCC5)c(C(F)(F)F)c4)ccc3C)cnc2s1 [7e] | – | 14000 ± 10200 nM | 230 ± 70 nM | –
3630 nM | – | CC(=O)Nc1nc2cc(-c3cc(NC(=O)c4ccc(CN5CCOCC5)c(C(F)(F)F)c4)ccc3C)cnc2s1 [7f] | – | 28400 ± 13300 nM | 300 ± 60 nM | –
180 nM | – | CC(=O)Nc1nc2cc(-c3cc(NC(=O)c4ccc(CN5CCCC(N(C)C)C5)c(C(F)(F)F)c4)ccc3C)cnc2s1 (centres unmarked) [7g] | – | 4880 ± 1180 nM | 70 ± 10 nM | –
100 nM | – | CC(=O)Nc1nc2cc(-c3cc(NC(=O)c4ccc(CN(C)CCN(C)C)c(C(F)(F)F)c4)ccc3C)cnc2s1 [7h] | – | 4980 ± 320 nM | 20 nM | –
– | – | CCn1c(=O)c(-c2cc(NC(=O)Nc3ccccc3)c(F)cc2Br)cc2cnc(NC)cc21 [Ripretinib] | – | – | – | overall response rate (GIST): 9.4%
– | 12200 ± 2060 nM | Cc1ccc(NC(=O)c2ccc(CN3CCN(C)CC3)cc2)cc1Nc1nccc(-c2cccnc2)n1 [imatinib, reference compound] | 17000 ± 200 nM | 27100 ± 3360 nM | – | levels of phosphorylated c-KIT (Tyr703) and downstream mediators p-AKT, p-ERK, p-PLCγ, p-STAT3 [1]: remarkably inhibited; production of apoptotic cells (HMC1.2 cells [6]): did not induce apoptosis; anchorage-independent growth (GIST-T1 cells [15]): dramatic inhibition; G0/G1 arrest induced compared to control (GIST-T1 cells [12]): 25–35%
– | 580 ± 290 nM | CCN(CC)CCNC(=O)c1c(C)[nH]c(/C=C2\C(=O)Nc3ccc(F)cc32)c1C [sunitinib, reference compound] | 2720 ± 300 nM | 2530 ± 350 nM | 10 nM | –
